Patent US12378256B2, “Heterocyclic compound” (Takeda Pharmaceutical Company Limited, priority 2017, dated 2025)

What was measured:
[1] = biological target: T1, human M1 receptor (hCHRM1) (Homo sapiens, UniProt P11229); test: Measurement of M1 receptor positive allosteric modulator (M1PAM) activity, calcium fluorescence with acetylcholine at EC20; type: cell-based; conditions: for activity (%) at 10 μM: 10 μM test compound, 100% = 1 μM acetylcholine, 0% = DMSO; for EC50: CHO-K1 cells expressing hCHRM1, acetylcholine at EC20 (final 0.8-1.0 nM), read-out: IP value (inflection point in the concentration-dependent curve)
T1 construct: expressed in transfected cells; host or cells: CHO-K1
T1 sequence (P11229 1-460): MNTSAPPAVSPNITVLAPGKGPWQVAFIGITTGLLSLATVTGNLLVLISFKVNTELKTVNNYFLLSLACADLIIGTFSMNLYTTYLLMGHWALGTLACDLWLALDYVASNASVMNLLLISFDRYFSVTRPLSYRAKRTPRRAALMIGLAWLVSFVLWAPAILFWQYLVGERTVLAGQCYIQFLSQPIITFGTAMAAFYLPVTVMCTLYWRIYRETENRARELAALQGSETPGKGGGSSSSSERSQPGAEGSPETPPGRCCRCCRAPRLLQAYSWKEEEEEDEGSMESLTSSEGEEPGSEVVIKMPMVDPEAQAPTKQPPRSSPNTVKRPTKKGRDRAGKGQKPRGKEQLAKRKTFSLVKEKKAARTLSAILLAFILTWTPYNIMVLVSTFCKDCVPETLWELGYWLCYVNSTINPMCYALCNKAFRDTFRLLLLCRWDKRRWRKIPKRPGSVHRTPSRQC
Method: Measurement of M1 Receptor Positive Allosteric Modulator (M1PAM) Activity
The activity of a test compound in the presence of acetylcholine at EC20 concentration (final concentration 0.8-1.0 nM), which affords an action corresponding to about 20% of the maximum activity, was measured as PAM activity. The method is as follows. CHO-K1 cells stably expressing a human M1 receptor (hCHRM1) were plated on a 384-well black clear bottom plate (BD Falcon) at 5,000 cells/well, and cultured in an incubator at 37° C., 5% CO2 for 1 day. The medium in the cell plate was removed, and assay buffer A containing calcium indicator (Recording medium (DOJINDO LABORATORIES), 0.1% BSA (Wako Pure Chemical Industries, Ltd.), 2.5 μg/mL Fluo-4 AM (DOJINDO LABORATORIES), 0.08% Pluronic F127 (DOJINDO LABORATORIES), 1.25 mM probenecid (DOJINDO LABORATORIES)) was added at 30 μL/well. The cells were left standing in the incubator at 37° C., 5% CO2 for 30 min, and further left standing at room temperature for 30 min. A test compound prepared by diluting with assay buffer B (HBSS (Invitrogen), 20 mM HEPES (Invitrogen), 0.1% BSA) containing 3.2-4.0 nM acetylcholine was added at 10 μL/well, and the fluorescence was measured by FDSS/μCELL (Hamamatsu Photonics K.K.) for 1 min every for 1 second. With the definition that the amount of change in the fluorescence on addition of acetylcholine (final concentration 1 μM) is 100% and that on addition of DMSO instead of a test compound is 0%, the activity (%) of the test compound was calculated, and the inflection point in the concentration-dependent curve of the test compound was calculated as IP values.

Male SD rats = test: Rat defecation experiment; type: in vivo; conditions: mean ± standard error
Method: Rat Defecation Experiment
Male SD rats (5-6 weeks old) were used after an acclimation period for about 1 week. A test drug (1 mg/kg or 3 mg/kg) was suspended in 0.5% methylcellulose solution and orally administered at a volume of 5 mL/kg, and the number of feces 2 hr later was counted. Only 0.5% methylcellulose was administered to a solvent administration group.

Row | activity (%) at 10 μM [1] | EC50 [1] | SMILES | number of feces 2 hr later (Male SD rats; 1 mg/kg oral) | number of feces 2 hr later (Male SD rats; 3 mg/kg oral)
1 | 107% | 0.63 nM | Cn1cc(-c2ccc(C(F)c3cc(C(=O)N[C@H]4CCOC[C@@H]4O)nc4ccoc34)cc2)nn1 (single isomer, unassigned) [Example 55, 1,5-anhydro-2,3-dideoxy-3-(((7-(fluoro(4-(1-methyl-1H-1,2,3-triazol-4-yl)phenyl)methyl)furo[3,2-b]pyridin-5-yl)carbonyl)amino)-L-threo-pentitol] | – | –
2 | 98% | 0.88 nM | Cn1cc(-c2ccc(Cc3cc(C(=O)N[C@H]4CCOC[C@@H]4O)nc4ccoc34)cc2)nn1 [Example 20, 1,5-anhydro-2,3-dideoxy-3-(((7-(4-(1-methyl-1H-1,2,3-triazol-4-yl)benzyl)furo[3,2-b]pyridin-5-yl)carbonyl)amino)-L-threo-pentitol] | 10.6 ± 1.3 | 12.1 ± 1.1
3 | 106% | 1.7 nM | O=C(N[C@H]1CCOC[C@@H]1O)c1cc(Cc2ccc(-n3cccn3)cc2)c2c(n1)CCO2 [Example 22, 1,5-anhydro-2,3-dideoxy-3-(((7-(4-(1H-pyrazol-1-yl)benzyl)-2,3-dihydrofuro[3,2-b]pyridin-5-yl)carbonyl)amino)-L-threo-pentitol] | – | –
4 | 101% | 1.4 nM | Cn1cc(-c2ccc(Cc3cc(C(=O)N[C@H]4CCOC[C@@H]4O)nc4c3OCC4)cc2)nn1 [Example 31, 1,5-anhydro-2,3-dideoxy-3-(((7-(4-(1-methyl-1H-1,2,3-triazol-4-yl)benzyl)-2,3-dihydrofuro[3,2-b]pyridin-5-yl)carbonyl)amino)-L-threo-pentitol] | 10.0 ± 1.4 | –
5 | 96% | 1.5 nM | Cn1cc(-c2ccc(Cc3cc(C(=O)N[C@H]4CCOC[C@@H]4O)nc4ccoc34)cn2)cn1 [Example 36, 1,5-anhydro-2,3-dideoxy-3-(((7-((6-(1-methyl-1H-pyrazol-4-yl)pyridin-3-yl)methyl)furo[3,2-b]pyridin-5-yl)carbonyl)amino)-L-threo-pentitol] | – | –
6 | 105% | 1.5 nM | Cn1cc(-c2ccc(Cc3cc(C(=O)N[C@H]4CCOC[C@@H]4O)nc4c3OCC4)cc2)cn1 [Example 44, 1,5-anhydro-2,3-dideoxy-3-(((7-(4-(1-methyl-1H-pyrazol-4-yl)benzyl)-2,3-dihydrofuro[3,2-b]pyridin-5-yl)carbonyl)amino)-L-threo-pentitol] | – | –
7 | 108% | 1.5 nM | Cn1cnc(-c2ccc(Cc3cc(C(=O)N[C@H]4CCOC[C@@H]4O)nc4c3OCC4)cc2)c1 [Example 74, 1,5-anhydro-2,3-dideoxy-3-(((7-(4-(1-methyl-1H-imidazol-4-yl)benzyl)-2,3-dihydrofuro[3,2-b]pyridin-5-yl)carbonyl)amino)-L-threo-pentitol] | – | –
8 | 109% | 3.5 nM | COCCNC(=O)c1ccc(Cc2cc(C(=O)N[C@H]3CCOC[C@@H]3O)nc3c2OCC3)cc1F [Example 76, 1,5-anhydro-2,3-dideoxy-3-(((7-(3-fluoro-4-((2-methoxyethyl)carbamoyl)benzyl)-2,3-dihydrofuro[3,2-b]pyridin-5-yl)carbonyl)amino)-L-threo-pentitol] | 8.3 ± 0.8 | 10.3 ± 0.9
9 | 108% | 3.2 nM | O=C(N[C@H]1CCOC[C@@H]1O)c1cc(Cc2ccc(C(=O)NC[C@@H]3CCCO3)c(F)c2)c2c(n1)CCO2 [Example 77, 1,5-anhydro-2,3-dideoxy-3-(((7-(3-fluoro-4-(((2S)-tetrahydrofuran-2-ylmethyl)carbamoyl)benzyl)-2,3-dihydrofuro[3,2-b]pyridin-5-yl)carbonyl)amino)-L-threo-pentitol] | 13.9 ± 1.5 | 12.3 ± 1.6
10 | 107% | 2.7 nM | O=C(N[C@H]1CCOC[C@@H]1O)c1cc(Cc2ccc(C(=O)NC[C@@H]3CCCO3)c(F)c2)c2occc2n1 [Example 102, 1,5-anhydro-2,3-dideoxy-3-(((7-(3-fluoro-4-(((2S)-tetrahydrofuran-2-ylmethyl)carbamoyl)benzyl)furo[3,2-b]pyridin-5-yl)carbonyl)amino)-L-threo-pentitol] | 8.9 ± 1.3 | 12.4 ± 0.9
11 | 107% | 2.4 nM | COCCNC(=O)c1ccc(Cc2cc(C(=O)N[C@H]3CCOC[C@@H]3O)nc3ccoc23)cc1F [Example 109, 1,5-anhydro-2,3-dideoxy-3-(((7-(3-fluoro-4-((2-methoxyethyl)carbamoyl)benzyl)furo[3,2-b]pyridin-5-yl)carbonyl)amino)-L-threo-pentitol] | – | –
